From patent publication US5399586A, “Treatment of mammals afflicted with tumors with compounds having RXR retinoid receptor agonist activity” (Allergan, Inc., priority 1993, dated 1995)
Where two headings read alike, the source gives them in different places.

Legend:
[1] = tested on: chimeric RARβ receptor protein; assay: Cationic Liposome Mediated Transfection Assay, RARβ; assay type: cell-based; settings: Table 1; 50% of maximum CAT activity of all-trans retinoic acid; HeLa cells
Experimental: (§1) The above-mentioned Cationic Liposome Mediated Transfection Assay assay by which the activity of a test compound as a potential agonist of the RXR and RAR receptor sites is determined, is performed substantially as reported by Feigner P. L. and Holm M. (1989) Focus, 11-2, and is described below first in principle and thereafter in the form of specific instructions how to perform the assay.
(§2) In connection with this assay it is known that retinoic acid receptors arena member of the steroid/thyroid receptor super family and that they contain domains which are interchangeable within individual receptors. Thus, plasmids for chimeric retinoid receptors containing estrogen DNA binding domain and estrogen response element chloramphenicol acetyl-transferase enzyme are constructed and are grown in specific cultured bacteria. These plasmids respectively code for chimeric RARα, RARβ, RARγ, RXRα receptor proteins, and for the chloramphenicol acetyl A transferase (CAT) enzyme protein. The bacteria with these plasmids are obtainable in accordance with the procedure set forth in the article titled "Nuclear Retinoic Acid Receptors: Cloning, Analysis, and Function", M. Pfahl et al , Methods in Enzymology 189, p 256-270 (1990) which is incorporated herein by reference. The detailed procedure how to isolate the DNA plasmids from the respective bacteria is also set forth below in detail, in the form of specific instructions under the title "Supercoiled Plasmid Isolation".
(§3) Thus, in accordance with the test procedure, DNA plasmid which codes for one of the chimeric RARα, RARβ, RARγ, or RXRα receptor proteins is transfected into cultures of HeLa cells. […] As is known and will be readily understood by those skilled in the art, especially in view of the above-cited M. Pfahl et al. article, chimeric retinoid receptors involved in this assay include a ligand binding domain which recognizes and binds specific agonist molecules, such as retinoic acid and analogs. […]

[2] = tested on: HL-60 cdm-1 cells; assay: Assay 2: DNA fragmentation (laddering) in HL-60 cdm-1 cells; assay type: cell-based, human; settings: 1 μM, 48 hours; 1% agarose gel
Experimental: HL-60 cdm-1 cells were placed in a T-25 tissue culture flask in 8 ml of media (RPMI-1640 containing bovine insulin 5 mg/L, human transferin 5 mg/L and Na Selenite 5 μg/L) at a density of 2×10^5 cells/ml. AGN 191701 (Compound 1) was added to a final concentration of 1 μM (8 μl of a 1 mM stock solution) and the cells were cultured in a humidified incubator (5% CO2) at 37° C. in the dark for 48 hours. The media and cells were removed from the flask, the cells were pelleted (1100 rpm/7 min Beckman desk top centrifuge), the pellet was washed once with phosphate buffered saline (PBS) and then the pelleted cells were lysed by the addition of 200 μl of a solution containing 20 mM Tris-HCl pH 7.4, 0.4 mM EDTA, 0.4% Triton X-100. The lysate was centrifuged for 5 minutes in a microfuge (14,000 rpm) and the supernatant adjusted to a final concentration of 0.5M NaCl and 50% isopropanol. The solution was allowed to precipitate overnight at -20° C. and the precipitate that formed was pelleted in a microfuge (10 min, 14,000 rpm). The pellet was washed once in 70% ethanol, it was resuspended in 50 μl Tris EDTA (10 mM Tris HCl ph 7.4, 0.4 mM EDTA) and mixed with gel loading buffer. […] DNA was detected by ethidium bromide staining followed by visualization and photography under a UV lamp.

[3] = tested on: chimeric RXRα receptor protein; assay: Cationic Liposome Mediated Transfection Assay, RXRα; assay type: cell-based
Experimental: as §1, §2
Thus, in accordance with the test procedure, DNA plasmid which codes for one of the chimeric RARα, RARβ, RARγ, or RXRα receptor proteins is transfected into cultures of HeLa cells. It is for this purpose that HeLa cells are grown in a medium during the first day of the assay detailed below as the "Cationic Liposome Mediated Transfection Assay". In the transfection procedure, which is performed during the second day of the transfection assay, the DNA plasmid coding for the CAT enzyme is also added to each cell culture, in addition to the respective chimeric RARα, or RARβ etc. coding plasmid. As is known and will be readily understood by those skilled in the art, especially in view of the above-cited M. Pfahl et al. article, chimeric retinoid receptors involved in this assay include a ligand binding domain which recognizes and binds specific agonist molecules, such as retinoic acid and analogs. These chimeric protein receptors (which were constructed in accordance with the teachings of the M. Pfahl. et al, article) also contain a a DNA binding domain, which is capable of binding to the "estrogen response element" (a DNA fragment) attached to the DNA plasmid coding for the CAT enzyme. […]

[4] = tested on: HL-60 cdm-1 cells; assay: Assay 1: HL-60 cdm-1 cell count and microscopy after 72 hours; assay type: cell-based, human; settings: 1 uM; for cell counts: control 5.1 × 10^+5 / ml; for inspection of microscope slides: versus control
Description: Sedimented cells were air dried, fixed in absolute methanol, stained with a Diff-quick reagent kit, mounted in Permount and visualized by brightfield light microscopy.

[5] = tested on: chimeric RARγ receptor protein; assay: Cationic Liposome Mediated Transfection Assay, RARγ; assay type: cell-based; settings: Table 1; 50% of maximum CAT activity of all-trans retinoic acid; HeLa cells
Experimental: as §1, §2, §3

[6] = tested on: RAR and RXR receptor sites; assay: RAR versus RXR agonist specificity (in words); assay type: cell-based; settings: result in words
Experimental: The data obtained in the assay are evaluated and expressed as follows. For each test compound and for each subspecies of the RAR receptors a graph (or the mathematical equivalent of a graph) is prepared where the "counts per minute" (cpm) obtained in the scintillation counter measurements are plotted (on the y axis) against the concentration of the test compound. A similar graph (or mathematical equivalent) is prepared for retinoic acid. […] This is illustrated in the graphs of FIG. 1 and FIG. 3.
This reference compound is a known agonist of the RXRα receptor site.

[7] = tested on: HL-60 cdm-1 cells; assay: Assay 3: morphology of HL-60 cdm-1 cells at 4 hours, 48 hours, 6 days; assay type: cell-based, human; settings: 3 μl of 1 mM stock in 3 ml
Experimental: HL-60 cdm-1 cells were plated in a 6-well tissue culture plate (Falcon) in 3 ml of media (RPMI-1640 containing bovine insulin 5 mg/L, human transferrin 5 mg/L and Na Selenite 5 μg/L) at a density of 1×10^5 cells/ml. Duplicate wells received either ethanol (3 μl) or 3 μl of a stock solution of AGN 191701 (Compound 1, 1 mM in ethanol). The cells were cultured in a humidified incubator (5% CO2) at 37° C. in the dark for either 4 hours, 48 hours or 6 days. At the indicated times an aliquot of the cells (50 μl) was sedimented onto a microscope slide using a cytospin centrifuge. Sedimented cells were air dried, fixed in absolute methanol, stained with a Diffquick reagent kit, mounted in permount and visualized by brightfield light microscopy.

[8] = tested on: chimeric RARα receptor protein; assay: Cationic Liposome Mediated Transfection Assay, RARα; assay type: cell-based; settings: Table 1; 50% of maximum CAT activity of all-trans retinoic acid; HeLa cells
Experimental: as §1
In connection with this assay it is known that retinoic acid receptors arena member of the steroid/thyroid receptor super family and that they contain domains which are interchangeable within individual receptors. Thus, plasmids for chimeric retinoid receptors containing estrogen DNA binding domain and estrogen response element chloramphenicol acetyl-transferase enzyme are constructed and are grown in specific cultured bacteria. […]
as §3

[9] = tested on: human myeloid leukemia (HL-60 cdm1-1) cells; assay: Induction of apoptotic cell death in HL-60 cdm-1 cells (general statement); assay type: cell-based; settings: compared with ethanol control
Experimental: In the assay, the human myeloid leukemia (HL-60 cdm1-1) cells are grown in cultures, and an RXR agonist compound, such as Compound 1 (AGN 191701) or Compound 3 (AGN 191659), is added to the culture.

[10] = Table 1; 50% of maximum CAT activity of AGN 191440; HeLa cells; read-out: EC50 RXRα

With `C/C(=C\c1cc(C(=O)O)cs1)c1cc2c(cc1C)C(C)(C)CCC2(C)C` [Compound 1, 2-[(E)-2-(5,6,7,8-tetrahydro-3,5,5,8,8-pentamethylnaphthalen-2-yl)propen-1-yl]thiophene-4-carboxylic acid] the EC50 [1] was 3350 nM, the “DNA fragmentation (laddering)” value [2] was “pattern of DNA fragmentation” and the EC50 [3, 10] was 67 nM. The cell counts [4] was 70000 mL⁻¹, the “inspection of microscope slides” value [4] was “extensive cell death, almost all cells died” and the EC50 [5] was 1070 nM. The “RAR / RXR agonist specificity” value [6] was “RXR specific agonist”, the “cell morphology at 4 hours” value ([7]; 4 hours) was “nuclear pyknosis and nuclear as well as cytoplasmic hyperchromicity with the formation of cytoplasmic extensions (large blobs)” and the “cell morphology at 48 hours” value ([7]; 48 hours) was “extensive cell death with numerous hyperchromatic nuclear fragments either free in the media or contained with shrunken cell remnants”. For the same compound, the “cell morphology after 6 days” value ([7]; 6 days) was “the same hyperchromatic nuclear remnants are detected but in addition there are scattered multinucleated syncitial cells”.
`C/C(=C\c1ccc(C(=O)O)cc1)c1cc2c(cc1C)C(C)(C)CCC2(C)C` [Compound 2, reference compound] gave an EC50 [1] of 101 nM, an EC50 [8] of 3160 nM and an EC50 [3, 10] of 448 nM. For the same compound, the EC50 [5] was 364 nM.
`C/C(=C\c1ccc(C(=O)O)s1)c1cc2c(cc1C)C(C)(C)CCC2(C)C` [Compound 3, 2-[(E)-2-(5,6,7,8-tetrahydro-3,5,5,8-pentamethylnaphthalen-2-yl)propen-1-yl]-5-thiophenecarboxylic acid] was tested, and the EC50 [1] was 23 nM, the EC50 [8] was over 1000 nM and the EC50 [3, 10] was 11.2 nM. The EC50 [5] was 153 nM and the “RAR / RXR agonist specificity” value [6] was “pan-agonist”.
For `C/C(=C\c1ccc(C(=O)O)cc1)c1ccc2c(c1)C(C)(C)CCC2(C)C` [Compound 4, reference compound], the apoptotic cell death [9] was “not active and not”, the EC50 ([3]; read-out: EC50 RXRα; Table 1; 50% of maximum CAT activity of AGN 191440; HeLa cells) was over 10000 nM and the cell counts [4] was 460000 mL⁻¹. The “inspection of microscope slides” value [4] was “no difference between the control”, the “RAR / RXR agonist specificity” value [6] was “specific RAR agonist” and the “activity at RXR receptor sites” value [6] was “not active at RXR receptor sites”.
